Publication PMC6677754, “In silico design and optimization of selective membranolytic anticancer peptides” (Scientific Reports, 2019)
Peptide text beside a SMILES is read from it.

Experiments:
[1] = test system: A549 lung adenocarcinoma cell line; test: Cell viability assay (MTT); format: cell-based, human; settings: Table S2; MTT, 24 h; mean ± sd; N = 2 independent measurements with six technical replicates each (Figs S6-S8); read-out: A549 EC50 /µM
Summary of the method: (§1)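 Viability by MTT: 10^4 cells/well exposed 24 h to 2-fold peptide dilutions from 100 μM in DMEM, then 1 h with 0.5 mg mL−1 MTT; absorbance at 540 nm relative to peptide-free medium as 100% survival. EC50 from a 3-parameter log-logistic fit.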

[2] = test system: MCF7 breast adenocarcinoma cell line; test: Cell viability assay (MTT); format: cell-based, human; settings: Table S2, 24 h, mean ± sd, N = 2 independent measurements with six technical replicates each (Figs S6-S8)
Summary of the method: as §1

[3] = test system: noncancer HDMEC primary cells (human dermal microvascular endothelial cells); test: Cell viability assay (MTT); format: cell-based; settings: Table S2; noncancer primary cells; MTT, 24 h; mean ± sd; N = 2 independent measurements with six technical replicates each (Figs S6-S8)
Experimental: 10% fetal bovine serum and 1% penicillin-streptomycin (Thermo Fisher Scientific, Waltham, MA, USA). The cultures were kept at 37°C in a 5% CO2 atmosphere incubator (Thermo Fisher Scientific, Waltham, MA, USA) and split every two to three days to new culture flasks. Cells no older than 20 passages were used for experiments.
For splitting, the cell culture media was aspirated, the cells were washed with 0.01 M phosphate buffered saline (PBS, Gibco, Thermo Fisher Scientific, Waltham, MA, USA) and trypsin-EDTA (trypsin - ethylene diamine tetraacetic acid, Fisher scientific, UK) was added to the cell layer to detach them from the flask surface. After incubation for 2 min at 37°C, cells were resuspended with an equal volume of DMEM media and centrifuged at 310 g for 5 min at 4°C. After removal of the supernatant the cells were resuspended in DMEM cell media and split into new cell culture flasks at a 1/3 to 1/5 ratio.
Determination of the anticancer peptides half effective concentration (EC50) was performed by a 3-(4,5-dimethylthiazol-2-yl)-2,5-diphenyltetrazolium bromide (MTT) assay, as described elsewhere21. Briefly, […] were seeded in each well of a 96-well plate and left to adhere and […]
sulfoxide (DMSO, Fisher Scientific, UK) at an intermediate concentration of 1 mM. The peptides were then diluted in a 2-fold dilution series starting at 100 μM with DMEM culture media. Cells were incubated with the peptide solutions for 24 h. After this time, the cell media was removed and the cells were incubated for 1 h with a 0.5 mg mL−1 MTT solution to allow enough time for formazan crystal formation (Sigma Aldrich, Steinheim, Germany). The supernatant was removed and 100 μL of DMSO were added into each well to resuspend the formazan crystals.
After manually shaking the plates to completely dissolve the crystals, the absorbance was measured at 540 nm in a Tecan Infinity M1000 spectrophotometer. The cell viability was determined based on the quantification of the color intensity in each culture well, considering the absorbance obtained by the control media without peptides as a 100% survival. The resultant sigmoidal curves were analyzed with the drc22 R package using a log-logistic model

[4] = test system: human erythrocytes; test: Hemolysis assay; format: cell-based; settings: red cells of human, 1 h
Experimental: Human erythrocytes were freshly ordered at the Blutspende Zürich. Erythrocytes were washed 3 times with a […] phosphate buffered saline (PBS, Gibco, Thermo Fisher Scientific, Waltham, MA, USA) solution centrifuging at 800 g for 10 min or until the supernatant appeared clear to remove the blood plasma. A 5% v/v erythrocytes : PBS solution was prepared for direct use. For HC50 determination, peptides were dissolved in PBS at an intermediate concentration of 1 mM. A dilution series of the peptide from 200 to 6.25 μM was plated in a round-bottomed 96-well plate in triplicates, with a volume of 50 μL per well. PBS buffer and a solution of 0.1% Triton-X-100 (Fisher Chemical, Loughborough, UK) in PBS were employed as negative and positive controls, respectively. 50 μL of the 5% erythrocyte solution were added in each well and the plates were incubated at 37°C for 1 h. After this time, 100 μL PBS were added to each well and plates were centrifuged at 800 g for 10 min. 100 μL of the supernatant were transferred to a flat-bottomed 96-well plate and the absorbance was measured at 540 nm in a Tecan Infinity M1000 spectrophotometer plate reader. The hemolysis percentage was calculated, considering the absorbance values of the Triton and PBS wells as 100% and 0% hemolysis, respectively.
The resultant sigmoidal curves were analyzed with the drc22 R package using a log-logistic model with 3 fixed parameters to obtain the HC50 values. […]
NCI-60 screening procedure […]
Each peptide was tested in a 5-concentration assay, starting at 10^-4 M and diluting 10-fold to the lowest 10^-8 M concentration. The peptides were incubated for 48 h and the cell concentration was assayed by using the sulforhodamine B assay25 and optical density measurements. The growth inhibition (GI50) value24, measures the growth inhibitory power of the drug agent. The GI50 value is the concentration of the test drug for which the condition in Eq. S1 is met, where T is the optical density of the test well after a 48-h exposure to the peptide, T0 the optical density before applying the peptide drug and C the control optical density of a well where no peptide was applied.

With CC[C@H](C)[C@H](NC(=O)[C@H](CCCCN)NC(=O)CNC(=O)[C@@H](NC(=O)[C@H](CC(C)C)NC(=O)[C@H](Cc1c[nH]cn1)NC(=O)[C@H](Cc1c[nH]c2ccccc12)NC(=O)[C@H](C)NC(=O)[C@H](CCCCN)NC(=O)[C@H](CCCCN)NC(=O)[C@@H](NC(=O)[C@H](Cc1c[nH]c2ccccc12)NC(=O)[C@@H](NC(=O)[C@H](CCCNC(=N)N)NC(=O)[C@@H](NC(=O)[C@H](CCCCN)NC(=O)[C@H](CCCCN)NC(=O)[C@@H](NC(=O)[C@@H](NC(=O)[C@@H](N)CCC(N)=O)[C@@H](C)CC)[C@@H](C)CC)C(C)C)[C@@H](C)O)[C@@H](C)CC)[C@@H](C)CC)C(N)=O [Off2.2.7] (H-QIIKKVRTWIKKAWHLIGKI-NH2) the EC50 [1] was 12 ± 2 µM, the EC50 [2] was 8 ± 1 µM and the EC50 [3] was 17 ± 1 µM. For the same compound, the “Eryhtr. HC50 /µM” value [4] was over 100 µM.
With CC(C)C[C@H](NC(=O)[C@H](CCCCN)NC(=O)CNC(=O)[C@H](Cc1ccccc1)NC(=O)[C@H](CC(C)C)NC(=O)[C@H](CCC(=O)O)NC(=O)[C@H](Cc1c[nH]c2ccccc12)NC(=O)[C@@H]1CCCN1C(=O)[C@H](CCCNC(=N)N)NC(=O)[C@H](CCCNC(=N)N)NC(=O)[C@H](Cc1ccc(O)cc1)NC(=O)[C@H](Cc1ccccc1)NC(=O)[C@@H]1CCCN1C(=O)[C@H](CCCNC(=N)N)NC(=O)[C@H](Cc1ccccc1)NC(=O)[C@H](CCCCN)NC(=O)[C@H](CCCCN)NC(=O)[C@H](Cc1ccccc1)NC(=O)[C@@H](NC(=O)[C@@H](N)CCC(N)=O)C(C)C)C(N)=O [Off2.1] (H-QVFKKFRPFYRRPWELFGKL-NH2) the EC50 [1] was over 100 µM, the EC50 [2] was 91 ± 2 µM and the EC50 [3] was 173 ± 1 µM. For the same compound, the “Eryhtr. HC50 /µM” value [4] was over 200 µM.
In the case of CC(C)C[C@H](NC(=O)[C@H](Cc1c[nH]cn1)NC(=O)[C@H](Cc1c[nH]c2ccccc12)NC(=O)[C@H](C)NC(=O)[C@H](CCCCN)NC(=O)[C@H](CCCNC(=N)N)NC(=O)[C@H](Cc1ccc(O)cc1)NC(=O)[C@H](Cc1c[nH]c2ccccc12)NC(=O)[C@@H](NC(=O)[C@H](CCCNC(=N)N)NC(=O)[C@@H](NC(=O)[C@H](CCCCN)NC(=O)[C@H](CCCCN)NC(=O)[C@H](CC(C)C)NC(=O)[C@H](CC(C)C)NC(=O)[C@@H](N)CCC(N)=O)C(C)C)[C@@H](C)O)C(=O)N[C@@H](Cc1ccc(O)cc1)C(=O)NCC(=O)N[C@@H](CCCCN)C(=O)N[C@H](C(N)=O)C(C)C [Off2.2.5] (H-QLLKKVRTWYRKAWHLYGKV-NH2), the EC50 [1] is reported as 29.3 ± 0.9 µM, the EC50 [2] is reported as 16 ± 2 µM and the EC50 [3] is reported as 27.2 ± 0.5 µM. The “Eryhtr. HC50 /µM” value [4] was over 200 µM.
Work on CC[C@H](C)[C@H](NC(=O)[C@H](CC(C)C)NC(=O)[C@@H](N)CCCNC(=N)N)C(=O)N[C@@H](CCCCN)C(=O)N[C@@H](CCCNC(=N)N)C(=O)N[C@@H](CC(C)C)C(=O)N[C@@H](CCCCN)C(=O)N[C@H](C(=O)N[C@@H](Cc1ccccc1)C(=O)N[C@H](C(=O)N[C@@H](CCCNC(=N)N)C(=O)N[C@@H](CCCCN)C(=O)N[C@H](C(=O)N[C@@H](Cc1c[nH]c2ccccc12)C(=O)N[C@@H](CCCCN)C(=O)N[C@@H](Cc1c[nH]c2ccccc12)C(=O)N[C@H](C(=O)NCC(=O)N[C@@H](Cc1c[nH]cn1)C(=O)N[C@@H](Cc1ccccc1)C(N)=O)C(C)C)[C@@H](C)O)C(C)C)[C@@H](C)O [Off7] (H-RLIKRLKTFVRKTWKWVGHF-NH2) yielded an EC50 [1] of 52 ± 2 µM, an EC50 [2] of 39 ± 3 µM and an EC50 [3] of 12 ± 3 µM. For the same compound, the “Eryhtr. HC50 /µM” value [4] was 95 ± 7 µM.
With CC[C@H](C)[C@H](NC(=O)[C@H](CCCCN)NC(=O)[C@H](CCCCN)NC(=O)[C@H](CC(C)C)NC(=O)[C@H](Cc1ccccc1)NC(=O)[C@H](CC(=O)O)NC(=O)[C@H](CCCCN)NC(=O)[C@H](Cc1ccccc1)NC(=O)[C@H](CCCCN)NC(=O)[C@H](CCCCN)NC(=O)[C@H](Cc1ccccc1)NC(=O)[C@@H](NC(=O)[C@@H](N)CCCCN)[C@@H](C)CC)C(=O)N[C@@H](Cc1ccccc1)C(=O)N[C@@H](CCC(N)=O)C(=O)N[C@@H](Cc1ccc(O)cc1)C(=O)N[C@@H](CC(C)C)C(=O)NCC(=O)N[C@@H](CCCCN)C(=O)N[C@H](C(N)=O)C(C)C [Off5] (H-KIFKKFKDFLKKIFQYLGKV-NH2) the EC50 [1] was 17.4 ± 0.1 µM, the EC50 [2] was 12.4 ± 0.4 µM and the EC50 [3] was 10.1 ± 0.2 µM. For the same compound, the “Eryhtr. HC50 /µM” value [4] was 15 ± 2 µM.
In the case of CC[C@H](C)[C@H](NC(=O)[C@H](CCCCN)NC(=O)[C@H](CCCCN)NC(=O)[C@@H](NC(=O)[C@@H](NC(=O)[C@@H](N)CCC(N)=O)C(C)C)C(C)C)C(=O)N[C@@H](CCCNC(=N)N)C(=O)N[C@H](C(=O)N[C@@H](Cc1c[nH]c2ccccc12)C(=O)N[C@@H](Cc1ccc(O)cc1)C(=O)N[C@@H](Cc1c[nH]cn1)C(=O)N[C@@H](CCCCN)C(=O)N[C@@H](C)C(=O)N[C@@H](Cc1c[nH]c2ccccc12)C(=O)N[C@@H](Cc1c[nH]cn1)C(=O)N[C@H](C(=O)N[C@@H](CC(C)C)C(=O)NCC(=O)N[C@@H](CCCCN)C(=O)N[C@H](C(N)=O)C(C)C)C(C)C)[C@@H](C)O [Off2.2.1] (H-QVVKKIRTWYHKAWHVLGKV-NH2), the EC50 [1] is reported as over 100 µM, the EC50 [2] is reported as 76 ± 15 µM and the EC50 [3] is reported as 96 ± 7 µM. For the same compound, the “Eryhtr. HC50 /µM” value [4] was over 200 µM.
CC[C@H](C)[C@H](NC(=O)[C@@H](NC(=O)[C@H](Cc1c[nH]cn1)NC(=O)[C@H](Cc1ccccc1)NC(=O)[C@H](C)NC(=O)[C@H](CCCCN)NC(=O)[C@H](CCCNC(=N)N)NC(=O)[C@H](Cc1ccc(O)cc1)NC(=O)[C@H](Cc1c[nH]c2ccccc12)NC(=O)[C@@H](NC(=O)[C@H](CCCNC(=N)N)NC(=O)[C@@H](NC(=O)[C@H](CCCCN)NC(=O)[C@H](CCCCN)NC(=O)[C@H](CC(C)C)NC(=O)[C@@H](NC(=O)[C@@H](N)CCC(N)=O)C(C)C)C(C)C)[C@@H](C)O)C(C)C)C(=O)NCC(=O)N[C@@H](CCCCN)C(=O)N[C@H](C(N)=O)C(C)C [Off2.2.4] (H-QVLKKVRTWYRKAFHVIGKV-NH2) was tested, and the EC50 [1] was over 100 µM, the EC50 [2] was 68 ± 5 µM and the EC50 [3] was over 100 µM. The “Eryhtr. HC50 /µM” value [4] was over 200 µM.
CC[C@H](C)[C@H](NC(=O)[C@@H](NC(=O)[C@H](Cc1c[nH]cn1)NC(=O)[C@H](Cc1c[nH]c2ccccc12)NC(=O)[C@H](C)NC(=O)[C@H](CCCNC(=N)N)NC(=O)[C@H](CCC(=O)O)NC(=O)[C@H](Cc1ccc(O)cc1)NC(=O)[C@H](Cc1ccc(O)cc1)NC(=O)[C@@H](NC(=O)[C@H](Cc1c[nH]cn1)NC(=O)[C@H](CC(C)C)NC(=O)[C@H](Cc1c[nH]cn1)NC(=O)[C@H](CCCCN)NC(=O)[C@H](CC(C)C)NC(=O)[C@H](Cc1ccccc1)NC(=O)[C@@H](N)CCCNC(=N)N)[C@@H](C)O)C(C)C)C(=O)NCC(=O)N[C@@H](Cc1c[nH]cn1)C(=O)N[C@@H](CC(C)C)C(N)=O [Off2.8] (H-RFLKHLHTYYERAWHVIGHL-NH2) gave an EC50 [1] of over 100 µM, an EC50 [2] of over 100 µM and an EC50 [3] of 2 ± 2 µM. The “Eryhtr. HC50 /µM” value [4] was over 200 µM.
